From publication PMC11851430, “Workflow for E3 Ligase Ligand Validation for PROTAC Development” (ACS Chemical Biology, 2025) come the findings set out here.

Test [1] deals with T1, kinase protein levels in MCF-7 cells (Homo sapiens, UniProt Q9BTL3).
T1 construct: endogenous in cells; host or cells: MCF-7
The test can be described thus: TMT-labeled quantitative proteomics. It counts as cell-based. The note with it: protein FAM103A1; MCF7; 1 µM; set5.

For test [2], the target named is T2, AURKA (Homo sapiens, UniProt O14965).
T2 sequence (O14965 1-403): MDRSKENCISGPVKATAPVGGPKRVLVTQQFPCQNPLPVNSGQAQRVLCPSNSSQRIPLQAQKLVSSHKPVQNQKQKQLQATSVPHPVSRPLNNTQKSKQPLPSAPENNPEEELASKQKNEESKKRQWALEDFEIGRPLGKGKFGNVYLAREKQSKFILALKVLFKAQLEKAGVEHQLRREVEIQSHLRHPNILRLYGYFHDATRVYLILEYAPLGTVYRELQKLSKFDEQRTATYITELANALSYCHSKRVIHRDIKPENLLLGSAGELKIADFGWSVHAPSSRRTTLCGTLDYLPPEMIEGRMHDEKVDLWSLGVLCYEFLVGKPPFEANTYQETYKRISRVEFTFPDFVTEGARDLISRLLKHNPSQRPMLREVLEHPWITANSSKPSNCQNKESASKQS
The test can be described thus: cell-based. The settings on record: intact cells; read-out: AURKA intact (IC50±sd)/µM. Also on record: species or system HEK293T; NanoBRET tracer displacement in intact cells, NanoLuc fusion protein, Tracer K10. An excerpt: (§1) Compounds were pipetted at various concentrations using an Echo acoustic dispenser (Labcyte), immediately followed by Tracer K10 (Promega, Tracer DB ID: T000008) for AAK1 and Aurora A and VHL Tracer (Promega, Tracer DB ID: T000019) for VHL, at an optimum KD concentration chosen from TracerDB (tracerdb.org), respectively.

The target in a further test is full-length AAK1 (Homo sapiens, UniProt Q2M2I8). The test can be described thus: cell-based. More on the design: species or system HEK293T; NanoBRET tracer displacement in intact cells, NanoLuc fusion protein, Tracer K10. The settings on record: intact cells; read-out: AAK1 intact (IC50±sd)/µM.
full-length AAK1, sequence (Q2M2I8 whole entry, the tested form may be a part): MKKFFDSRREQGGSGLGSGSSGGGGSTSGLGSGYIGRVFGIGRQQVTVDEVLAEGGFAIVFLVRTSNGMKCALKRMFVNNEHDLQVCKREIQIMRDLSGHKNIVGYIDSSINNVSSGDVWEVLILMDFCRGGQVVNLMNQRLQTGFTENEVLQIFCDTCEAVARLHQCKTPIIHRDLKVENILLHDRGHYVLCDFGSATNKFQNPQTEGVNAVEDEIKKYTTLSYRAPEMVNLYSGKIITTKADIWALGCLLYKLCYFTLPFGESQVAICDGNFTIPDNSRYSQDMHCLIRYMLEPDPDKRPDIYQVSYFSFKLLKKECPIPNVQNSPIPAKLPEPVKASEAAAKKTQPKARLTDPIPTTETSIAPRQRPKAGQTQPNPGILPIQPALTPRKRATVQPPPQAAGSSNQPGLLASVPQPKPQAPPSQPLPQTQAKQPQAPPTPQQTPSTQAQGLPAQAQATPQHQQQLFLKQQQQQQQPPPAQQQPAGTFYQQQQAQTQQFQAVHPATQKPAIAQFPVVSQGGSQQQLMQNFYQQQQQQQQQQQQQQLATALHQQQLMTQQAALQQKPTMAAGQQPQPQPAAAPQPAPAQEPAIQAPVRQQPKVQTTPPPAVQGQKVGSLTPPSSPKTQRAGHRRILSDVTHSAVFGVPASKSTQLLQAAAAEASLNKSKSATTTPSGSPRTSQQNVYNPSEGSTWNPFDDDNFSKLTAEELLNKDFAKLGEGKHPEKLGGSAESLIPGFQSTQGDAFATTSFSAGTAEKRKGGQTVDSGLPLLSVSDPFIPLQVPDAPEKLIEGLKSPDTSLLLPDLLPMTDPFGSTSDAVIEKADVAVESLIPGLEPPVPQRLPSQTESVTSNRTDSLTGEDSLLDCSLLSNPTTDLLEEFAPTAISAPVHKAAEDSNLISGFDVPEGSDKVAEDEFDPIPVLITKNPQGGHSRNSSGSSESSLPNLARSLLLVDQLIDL
Text: as §1

In test [3] the target is T2, AURKA. The test can be described thus: cell-based. More on the design: species or system HEK293T; NanoBRET tracer displacement in permeabilized cells, NanoLuc fusion protein, Tracer K10. The note with it: permeabilized cells; read-out: AURKA permeabilized (IC50±sd)/µM.

Like-named read-outs stand apart in the source and are kept apart here.

T1 sequence (Q9BTL3 whole entry): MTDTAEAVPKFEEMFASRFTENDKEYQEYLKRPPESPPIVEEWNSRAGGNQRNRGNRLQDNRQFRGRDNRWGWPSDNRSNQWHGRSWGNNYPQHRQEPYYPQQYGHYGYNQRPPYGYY

For `Cc1ncsc1-c1ccc(CNC(=O)[C@@H]2C[C@@H](O)CN2C(=O)[C@@H](NC(=O)CCCCCCN2CCN(c3ccc(Nc4ncc(Cl)c(Nc5ccccc5C(N)=O)n4)cc3)CC2)C(C)(C)C)cc1` [6-d], in test [1], the “P.Value (compound/DMSO)” value is recorded as 0.1981 and the “log2FC (compound/DMSO)” value is recorded as -0.2114.
Take `Cc1ncsc1-c1ccc(CNC(=O)[C@@H]2C[C@H](O)CN2C(=O)[C@@H](NC(=O)CCOCCOCCOCCN2CCN(c3cc(Nc4cc(C5CC5)[nH]n4)nc(Nc4ccc(CC#N)cc4)n3)CC2)C(C)(C)C)cc1` [4-a^neg]: the results for the IC50 at AURKA [2], on full-length AAK1 and at AURKA [3] were 5.04 ± 1.12 µM, 0.108 ± 0.042 µM and 1.89 ± 0.025 µM, respectively.
